Assay results reported in US9101640B2, “Use of Danshensu, Notoginsenoside R1 or their combination in preparation of medicaments for preventing and treating diseases caused by microcirculation disorder” (Tasly Pharmaceutical Group Co., Ltd., priority 2009, dated 2015).
Entries after “also recorded” stand apart in the source; their conditions may differ.

Test system: mesenteric venules
Assay: Diameters of mesenteric venules after I/R
Assay type: in vivo
Settings: rat mesenteric I/R
Protocol: The rats were anesthetized by intraperitoneal injection of pentobarbital sodium (30 mg/kg body weight (BW)). PE venous cannulas (#3) were cannulated into the right jugular of the rats and detained. The abdomen of each rat was incised in a length of 20-30 mm along the midline. The ileum near the ileocecal junctions was gently taken out and unfolded onto the object stage mounted with glass slides. The unfolded mesenteries were continuously dripped with Krebs-Ringer buffering solution at 37° C. The microcirculatory dynamics of the mesenteries was observed under white light (12V, 100 W) using an inverted biomicroscope (Diaphot TMD-2S, Nikon, Tokyo) placed in the thermostat at 37° C. Observation sites were selected under 20× object lens, and a video recording system with a time-displaying function was used to record what had been observed on S-VHS tape and preserved. […] Normal saline was administrated at 20 min before ischemia until the end of the observation by continuously intravenous drip via jugular at a dosage of 5 mg/kg/h. PE cannulas were used to ligate non-circulatory mesenteric arteries and veins, so as to observe the arteries and veins for 10 min, and then the ligation was lifted. Time was adjusted to zero and the microcirculatory dynamics under the same visual field was continuously observed for 60 min. DLA was administrated at 20 min before ischemia until the end of the observation by continuously intravenous drip via jugular at a dosage of 5 mg/kg/h. R1 was administrated at 20 min before ischemia until the end of the observation by continuously intravenous drip via jugular at a dosage of 5 mg/kg/h. The combination of DLA and R1 in a weight ratio of 4:1 was administrated at 20 min before ischemia until the end of the observation by continuously intravenous drip via jugular at a dosage of 5 mg/kg/h. The combination of DLA and R1 in a weight ratio of 1:1 was administrated at 20 min before ischemia until the end of the observation by continuously intravenous drip via jugular at a dosage of 5 mg/kg/h. […] Wherein, 6 rats in each group were taken out, these rats were used for observing the following aspects: the venular diameters; leukocytes rolling, adhesion, and emigration and DHR fluorescence intensities of the venular walls. […] Microcirculatory dynamics was continuously recorded using an inverted biomicroscope […] recording system (CC-090, Flovel, Tokyo) and SIT fluorescent camera (C-2400-08, Hamamatsu Photonics, Hamamatsu). 3 sites of the mesenteric venules were measured using Image-Pro Plus 5.0 software from the replayed CD records at the following time points: before ischemia and 1 min, 10 min, 20 min, 30 min, 40 min, 50 min and 60 min after the beginning of the reperfusion. The average diameters were calculated.

## CC(C)=CCC[C@](C)(O[C@@H]1O[C@H](CO)[C@@H](O)[C@H](O)[C@H]1O)[C@H]1CC[C@]2(C)[C@@H]1[C@H](O)C[C@@H]1[C@@]3(C)CC[C@H](O)C(C)(C)[C@@H]3[C@@H](O[C@@H]3O[C@H](CO)[C@@H](O)[C@H](O)[C@H]3O[C@@H]3OC[C@@H](O)[C@H](O)[C@H]3O)C[C@]12C [R1, Notoginsenoside R1]
post-administration, 5 mg/kg/h continuous i.v. drip from 20 min after ischemia (DLA: 10 min after I/R), 5 mg/kg
  effect on the diameters of the mesenteric venules after reperfusion: did not cause the significant changes; also recorded: have no significant inhibitory effects
pre-administration, 5 mg/kg/h continuous i.v. drip from 20 min before ischemia, 60 min reperfusion, 5 mg/kg
  effect on the diameters of the mesenteric venules after reperfusion: did not cause the significant changes; also recorded: have no significant inhibitory effects

## O=C(O)C(O)Cc1ccc(O)c(O)c1 (stereo not shown) [DLA, 3,4-dihydroxyphenyl lactic acid]
post-administration, 5 mg/kg/h continuous i.v. drip from 20 min after ischemia (DLA: 10 min after I/R)
  effect on the diameters of the mesenteric venules after reperfusion: did not cause the significant changes
pre-administration, 5 mg/kg/h continuous i.v. drip from 20 min before ischemia, 60 min reperfusion
  effect on the diameters of the mesenteric venules after reperfusion: did not cause the significant changes
